According to publication PMC7690883, “Pseudoceratonic Acid and Moloka’iamine Derivatives from the Red Sea Verongiid Sponge Pseudoceratina arabica” (Marine Drugs, 2020):
≈ marks a conversion by molar mass, not a printed value. Read-outs that look alike come from different tables or passages of the source.

What was measured:
Format in all cases: cell-based
E. coli (ATCC 25922) = experiment: Disc diffusion assay, E. coli; conditions: Escherichia coli
Method: (§1) The antimicrobial evaluation of the compounds against E. coli, S. aureus and C. albicans at 50 µg/disc was carried out using disc diffusion assay. […] The other compounds were weakly active against the three pathogens with inhibition zones of 6–9 mm (Table 3).
(§2) Using S. aureus (ATCC 25923), E. coli (ATCC 25922), and C. albicans (ATCC 14053), a disc diffusion assay was carried out to evaluate the antimicrobial effects of 1–6 at 50 µg/disc as reported before. Ketoconazole (50 µg/disc) and ciprofloxacin (5.0 µg/disc) served as antibiotics controls.

S. aureus (ATCC 25923) = experiment: Disc diffusion assay, S. aureus; conditions: Staphylococcus aureus
Method: as §1, §2

C. albicans (ATCC 14053) = experiment: Disc diffusion assay, C. albicans; conditions: Candida albicans
Method: as §1, §2

E. coli = experiment: MIC determination (dilution method), E. coli; conditions: Escherichia coli; Mueller Hinton Broth, 48 h at 37 °C
Method: (§3) The minimal inhibitory concentrations (MICs) of the compounds were evaluated using a […] method (Table 3).
(§4) The MIC values of the compounds were determined of using a macrodilution method. Briefly, the compounds were dissolved in MeOH at a final concentration of 2000 µg/mL. Ciprofloxacin and ketoconazole were dissolved in H2O at final concentrations of 100 µg/mL. Syringe filters (0.2 µm) were used for sterilization of all stock solutions. Two-fold serial dilutions of the solutions were used in Mueller Hinton Broth (MHB) to give concentrations of 1.0–1000 µg/mL (for the compounds) and 0.125–64 µg/mL (for ciprofloxacin and ketoconazole). 500 µL from the 10^6 CFU/mL microbial suspensions were added in sterile tubes to give inoculua of 5 × 10^5 CFU/mL. Further, 100 µL of the stock solutions of the compounds and antibiotics were added into the tubes. Control tubes with test microorganisms only and MeOH were prepared. […] The tubes were kept for 48 h at 37 °C.

S. aureus = experiment: MIC determination (dilution method), S. aureus; conditions: Staphylococcus aureus; Mueller Hinton Broth, 48 h at 37 °C
Method: as §3, §4

C. albicans = experiment: MIC determination (dilution method), C. albicans; conditions: Candida albicans, read-out: C. albicans MIC
Method: as §3, §4

[1] = system: MDA-MB-231 (triple-negative breast cancer); experiment: MTT cytotoxicity assay, MDA-MB-231; conditions: Homo sapiens, read-out: IC50 MDA-MB-231
Method: (§5) The cytotoxic and antiproliferative effects of the compounds against MDA-MB-231, HeLa, and HCT 116 cell lines were evaluated using MTT (3-(4,5-Dimethylthiazol-2-yl)-2,5-diphenyltetrazolium bromide) assay (Table 4).
(§6) The cell lines MDA-MB-231 (triple-negative breast cancer, ATCC HTB-26), HeLa (human cervical carcinoma, ATCC CCL-2), HCT 116 (colorectal carcinoma, ATCC CCL-247) were used for the evaluation of the cytotoxicity of the compounds. In addition, NHDF (normal human dermal fibroblasts) cells were used to evaluate the selectivity of compound 2 against the cancerous cell lines. DMEM, with Pen–Strep. (1%) and FBS (10%), was used for culturing MDA-MB-231 cells, while RPMI 1640, with Pen–Strep. (1%) and FBS (10%), was used for culturing HCT 116 and HeLa cells. Finally, NHDF cells were cultured in fibroblast basal medium complemented with Pen–Strep. (1% v/v), heat-inactivated fetal bovine serum (FBS) (2% v/v), insulin (5 µg/mL) and basic fibroblast growth factor (1 ng/mL). Culture of all cells was completed at 37 °C with 5% CO2 and 95% humidity.
(§7) The cytotoxic effects of the compounds were evaluated using MTT assay as reported earlier. Briefly, all cells kept overnight in 5% CO2/air and at 37 °C. Tested compounds were added to the upper row of a 96-well plate followed by 1:4 (v/v) serial dilutions. After 72 h incubation of the compounds with the cells (10,000 cells/well for HCT 116 and NHDF, and 12,000 cells/well for HeLa and MDA-MB-231), the cells’ viability was calculated at 490 nm as reported before. 5-Fluorouracil (5-FU) and DMSO were used as positive and negative controls. The IC50 values reported in […] represent the mean of three separate experiments. A concentration of 10 µM was set as a cutoff value in this assay.

[2] = system: HeLa (human cervical carcinoma); experiment: MTT cytotoxicity assay, HeLa; conditions: 72 h, read-out: IC50 HeLa
Method: as §5, §6, §7

[3] = system: HCT 116 (colorectal carcinoma); experiment: MTT cytotoxicity assay, HCT 116; conditions: Homo sapiens, read-out: IC50 HCT 116
Method: as §5, §6, §7

[4] = system: NHDF (normal human dermal fibroblasts); experiment: MTT cytotoxicity assay, NHDF; conditions: 72 h
Method: as §5, §6
The cytotoxic effects of the compounds were evaluated using MTT assay as reported earlier. […] After 72 h incubation of the compounds with the cells (10,000 cells/well for HCT 116 and NHDF, and 12,000 cells/well for HeLa and MDA-MB-231), the cells’ viability was calculated at 490 nm as reported before. […]

[5] = ATCC14053, disc diffusion, 50 µg/disc (compounds and ketoconazole), read-out: C. albicans Inhibition Zone
[6] = Mueller Hinton Broth, 48 h at 37 °C
[7] = MDA-MB-231, MTT, 72 h, cutoff 10 µM
[8] = Homo sapiens, HeLa, MTT, cutoff 10 µM
[9] = HCT-116, MTT, 72 h, cutoff 10 µM
[10] = ATCC25922, read-out: E. coli Inhibition Zone
[11] = ATCC25923, read-out: S. aureus Inhibition Zone
[12] = ATCC14053, read-out: C. albicans Inhibition Zone

| SMILES | MIC (E. coli) | MIC (S. aureus) | IC50 [1, 7] | IC50 [2, 8] | IC50 [3, 9] | zone of inhibition at 50 µg/disc (E. coli (ATCC 25922); [10]) | zone of inhibition at 50 µg/disc (S. aureus (ATCC 25923); [11]) | zone of inhibition at 50 µg/disc (C. albicans (ATCC 14053); [12]) | MIC (C. albicans; 48 h) | IC50 ([1]; MDA-MB-231, 72 h) | IC50 ([2]; Homo sapiens, HeLa) | IC50 ([3]; HCT-116, 72 h) | also measured |
| --- | --- | --- | --- | --- | --- | --- | --- | --- | --- | --- | --- | --- | --- |
| N#CC(=O)NCCCOc1c(Br)cc(CCNC=C2C(=O)C=CC2=O)cc1Br [Compound 2, ceratinine N] | 125 µg/mL (≈ 245 µM) | 125 µg/mL (≈ 245 µM) | 3.1 ± 0.29 µM | 2.1 µM | 2.9 ± 0.18 µM | – | – | – | – | – | – | – | zone of inhibition at 50 µg/disc (E. coli (ATCC 25922); ATCC25922, disc diffusion, 50 µg/disc, read-out: E. coli Inhibition Zone): 6 mm; zone of inhibition at 50 µg/disc (S. aureus (ATCC 25923); ATCC25923, disc diffusion, 50 µg/disc, read-out: S. aureus Inhibition Zone): 7 mm; zone of inhibition at 50 µg/disc (C. albicans (ATCC 14053); [5]): 16 mm; MIC (C. albicans; [6]): 16 µg/mL (≈ 31.3 µM); IC50 ([2]; MTT, cutoff 10 µM): 2.3 ± 0.16 µM; IC50 [4]: 3.5 ± 0.3 µM |
| O=C(O)c1cn(C2CC2)c2cc(N3CCNCC3)c(F)cc2c1=O [Ciprofloxacin, reference compound] | 0.25 µg/mL (≈ 0.754 µM) | 0.5 µg/mL (≈ 1.51 µM) | – | – | – | – | – | – | – | – | – | – | zone of inhibition at 5 µg/disc (E. coli (ATCC 25922); ATCC25922, disc diffusion, ciprofloxacin 5.0 µg/disc): 30 mm; zone of inhibition at 5 µg/disc (S. aureus (ATCC 25923); ATCC25923, disc diffusion, ciprofloxacin 5.0 µg/disc): 22 mm |
| CC(=O)N1CCN(c2ccc(OCC3COC(Cn4ccnc4)(c4ccc(Cl)cc4Cl)O3)cc2)CC1 (centres unmarked) [Ketoconazole, reference compound] | – | – | – | – | – | – | – | – | – | – | – | – | zone of inhibition at 50 µg/disc (C. albicans (ATCC 14053); [5]): 30 mm; MIC (C. albicans; [6]): 0.5 µg/mL (≈ 0.941 µM) |
| O=c1[nH]cc(F)c(=O)[nH]1 [Compound 5-FU, 5-Fluorouracil, reference compound] | – | – | 13 ± 0.3 µM | 12.3 ± 0.25 µM | 4.6 ± 0.23 µM | – | – | – | – | – | – | – | – |
| NCCCOc1c(Br)cc(CCN)cc1Br [Compound 4, moloka’iamine] | 125 µg/mL (≈ 355 µM) | 125 µg/mL (≈ 355 µM) | – | – | – | 6 mm | 7 mm | 6 mm | 125 µg/mL (≈ 355 µM) | ≥ 10 µM | ≥ 10 µM | ≥ 10 µM | – |
| NCCCOc1c(Br)cc(C(O)CN)cc1Br (centres unmarked) [Compound 5, hydroxymoloka’iamine] | – | – | ≥ 10 µM | ≥ 10 µM | ≥ 10 µM | – | – | – | – | – | – | – | – |
| CCOC(=O)NCCCOc1c(Br)cc(CCN)cc1Br [Compound 3, ceratinine O] | 125 µg/mL (≈ 295 µM) | 64 µg/mL (≈ 151 µM) | – | – | – | 6 mm | 8 mm | 9 mm | 64 µg/mL (≈ 151 µM) | ≥ 10 µM | ≥ 10 µM | 9.5 ± 0.85 µM | – |
| N#CC(=O)NCCCOc1c(Br)cc(CCN)cc1Br [Compound 6, ceratinamine] | 125 µg/mL (≈ 309 µM) | 64 µg/mL (≈ 158 µM) | – | – | – | 7 mm | 9 mm | 12 mm | 32 µg/mL (≈ 79 µM) | ≥ 10 µM | ≥ 10 µM | ≥ 10 µM | – |
